For orientation: IC50 means the point on the concentration scale where inhibition reaches its midpoint.

The target in the experiment is T1, Inhibitor of nuclear factor kappa-B kinase subunit beta (Homo sapiens, UniProt O14920).
T1 sequence (O14920 whole entry): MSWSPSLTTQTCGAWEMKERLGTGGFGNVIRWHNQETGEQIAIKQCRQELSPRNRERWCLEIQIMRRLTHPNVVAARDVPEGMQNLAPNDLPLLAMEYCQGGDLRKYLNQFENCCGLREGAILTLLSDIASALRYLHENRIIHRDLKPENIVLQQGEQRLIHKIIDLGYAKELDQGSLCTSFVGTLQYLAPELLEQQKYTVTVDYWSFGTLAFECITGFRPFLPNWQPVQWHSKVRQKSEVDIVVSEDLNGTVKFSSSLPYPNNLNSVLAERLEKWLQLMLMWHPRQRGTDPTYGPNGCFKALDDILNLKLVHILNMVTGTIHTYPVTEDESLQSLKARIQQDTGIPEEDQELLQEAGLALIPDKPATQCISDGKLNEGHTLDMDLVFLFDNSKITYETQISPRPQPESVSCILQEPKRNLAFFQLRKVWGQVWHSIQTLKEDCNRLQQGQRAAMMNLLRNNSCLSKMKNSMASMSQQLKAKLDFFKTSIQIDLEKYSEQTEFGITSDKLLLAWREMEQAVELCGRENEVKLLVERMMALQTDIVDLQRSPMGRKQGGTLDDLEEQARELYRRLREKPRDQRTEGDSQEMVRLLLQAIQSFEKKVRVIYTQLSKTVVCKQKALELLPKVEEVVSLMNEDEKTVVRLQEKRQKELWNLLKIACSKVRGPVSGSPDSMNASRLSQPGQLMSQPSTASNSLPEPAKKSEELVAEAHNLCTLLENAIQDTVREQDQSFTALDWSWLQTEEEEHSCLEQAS
Briefly: Inhibition of IKKbeta (unknown origin) assessed as substrate phosphorylation using IkappaBalpha as substrate incubated for 1 hr in presence of ATP by chip-based fluorescence assay.
As to `O=C(c1ccc(Nc2nccc(-c3cc4ccccc4s3)n2)cc1)N1CCC(N2CCCC2)CC1`, the concentration for half-maximal inhibition (IC50) was determined as 6.46 µM.
Under `O=C1C=C2C[C@]3(O)COc4c(ccc(O)c4O)C3=C2C=C1O` stands 2.18 µM.
In the case of `O=C(O)C1=CC(=C(c2ccc(O)c(C(=O)O)c2)c2ccc(O)c(C(=O)O)c2)C=CC1=O` [AURINTRICARBOXYLIC ACID], the IC50 stood at 5.4 µM.
Under `COc1ccc(-c2cc(=O)c3c(O)cc(O[C@@H]4O[C@H](CO[C@@H]5O[C@@H](C)[C@H](O)[C@@H](O)[C@H]5O)[C@@H](O)[C@H](O)[C@H]4O)cc3o2)cc1O` [DIOSMIN] stands 3.89 µM; under `O=c1oc2c(O)c(O)cc3c(=O)oc4c(O)c(O)cc1c4c23` [ELLAGIC ACID], 1.98 µM.

The values are drawn from ChEMBL document CHEMBL4725220, “Small molecule inhibitors of IκB kinase β: A chip-based screening and molecular docking simulation” (Bioorg Med Chem, 2020).
